Experimental data published in US20120245229A1, “METHOD FOR TREATING NEUROPATHIC PAIN” (priority 2009, published 2012).

Experiments:
[1] = tested on: intrathecal TNF-α-induced hypersensitivity; experiment: Intrathecal TNF-α-induced heat hyperalgesia and mechanical allodynia; assay type: in vivo, mice
Procedure: Behavioral analysis. Mice were habituated in the testing environment for two days and performed behavioral testing in a blinded manner. Formalin-evoked spontaneous inflammatory pain was assessed by measuring duration (seconds) animals spent on licking/flinching the affected paws every 5 min for 45 min. Capsaicin-induced spontaneous pain was aslo assessed for 10 min. For testing mechanical sensitivity, mice were put in boxes on an elevated metal mesh floor and stimulated hindpaw with a series of von Frey hairs with logarithmically incrementing stiffness (0.02-2.56 grams, Stoelting), presented perpendicular to the plantar surface. It was determined the 50% paw withdrawal threshold using Dixon's up-down method^40. For testing heat sensitivity, mice were placed in plastic boxes and tested heat sensitivity using Hargreaves radiant heat apparatus (IITC Life Science Inc.). The basal paw withdrawal latency was adjusted to 9-12 seconds and set a cut-off of 20 seconds to prevent tissue damage. […] BL1, baseline latency before inflammation; BL2, baseline latency after inflammation but before drug injection; PL, latency post drug injection. Intrathecal injection: […] To examine whether pretreatment of RvE1 attenuates capsaicin-induced acute spontaneous pain, RvE1 and capsaicin were mixed and injected at the same time (FIG. 3f).

[2] = tested on: carrageenan (CRG)-elicited heat hyperalgesia; experiment: Carrageenan (CRG)-elicited heat hyperalgesia; assay type: in vivo, mice; conditions: intraplantar pretreatment, 20 ng, 10 min before carrageenan
Procedure: (§1) Animals and pain models. Adult CD1 mice (male, 25-32 g) were used for most experiments. Knockout mice were used lacking TNFR1/II (Tnfrsf1a/1b^−/−) and TRPV1 (Trpv1^−/−) and C57BL/6 wild-type control mice, all from Jackson, for some experiments. All animal procedures performed in this study were approved by the Harvard Medical Area Standing Committee on Animals. 20 μl of diluted formalin (5%), carrageenan (CRG, 1%), or complete Freund's adjuvant (CFA) were injected into the plantar surface of a hindpaw to produce acute, persistent, or chronic inflammatory pain, respectively. Postoperative pain was also produced through hindpaw incision^36 and neuropathic pain by ligation of the spinal nerve^37.
(§2) Behavioral analysis. Mice were habituated in the testing environment for two days and performed behavioral testing in a blinded manner. Formalin-evoked spontaneous inflammatory pain was assessed by measuring duration (seconds) animals spent on licking/flinching the affected paws every 5 min for 45 min. Capsaicin-induced spontaneous pain was aslo assessed for 10 min. For testing mechanical sensitivity, mice were put in boxes on an elevated metal mesh floor and stimulated hindpaw with a series of von Frey hairs with logarithmically incrementing stiffness (0.02-2.56 grams, Stoelting), presented perpendicular to the plantar surface. It was determined the 50% paw withdrawal threshold using Dixon's up-down method^40. For testing heat sensitivity, mice were placed in plastic boxes and tested heat sensitivity using Hargreaves radiant heat apparatus (IITC Life Science Inc.). The basal paw withdrawal latency was adjusted to 9-12 seconds and set a cut-off of 20 seconds to prevent tissue damage. The percent maximal possible antinociceptive effect (% M.P.E) was calculated using the equation % M.P.E.=[(PL−BL2)/(BL1−BL2)]×100. BL1, baseline latency before inflammation; BL2, baseline latency after inflammation but before drug injection; PL, latency post drug injection.
Resolvins were also used for intraplantar injection. […]

neutrophil infiltration = experiment: Myeloperoxidase (MPO) assay of neutrophil infiltration in the inflamed paw; assay type: in vivo, mice; conditions: intraplantar pretreatment; 4 h after CRG injection
Procedure: Myeloperoxidase assay. Paw inflammation is associated with infiltration of neutrophils (polymorphonuclear cells), and myeloperoxidase (MPO) activity is often used to quantify neutrophil activation to evaluate the magnitude of paw inflammation. To determine MPO assay, fresh skin tissues were suspended in phosphate buffer and homogenized. The suspension was centrifuged and the supernatant was assayed for MPO activity using a MPO Activity Assay Kit (Northwest Life Science Specialties, LLC). Each reaction was performed according to manufacturer's protocol. Briefly, hypochlorous acid (HOCl) is formed from MPO catalyzed reaction between chloride and hydrogen peroxide. HOCl is rapidly trapped by β-amino acid taurine to form a stable oxidant taurine chloramine. Taurine chloramine is then allowed to react with 5-thio-2-nitrobenzoic acid (TNB). TNB has a chromophore that has maximal absorbance at 412 nm while its reaction product with taurin chloramine is colorless. The color change is detected by spectrophotometry. By following the decrease of absorbance at 412 nm, MPO activity is measured. One unit is the amount of MPO that can produce 1.0 nmole of taurine chloramine at pH 6.5 and 25° C. during 30 minutes in the presence of 100 mM chloride and 100 μM of hydrogen peroxide.

inflammatory pain = experiment: Inflammatory pain models induced by formalin or CFA (summary statements); assay type: in vivo, mouse
Procedure: as §1, §2

CRG-induced edema = experiment: Carrageenan paw edema (paw volume, plethysmometer); assay type: in vivo, mice; conditions: intraplantar pretreatment; 4 h after CRG injection
Procedure: Measurement of paw volume. Paw swelling (edema) after carrageenan injection was determined by water displacement plethysmometer (Ugo Basile, Italy). The Plethysmometer is a microcontrolled volume meter, specially designed for accurate measurement of the rat/mouse paw swelling. It consists of a water filled Perspex cell into which the paw is dipped. A transducer of original design records small differences in water level, caused by volume displacement.

CC[C@@H](O)/C=C/C=C\C[C@@H](O)/C=C/C=C/C=C\[C@@H](O)CCCC(=O)O [RvE1, 5S,12R,18R-trihydroxyeicosapentaenoic acid]
mechanical allodynia induced by TNF-α ([1]; intrathecal RvE1 pretreatment): attenuated | TNF-α-induced heat hyperalgesia ([1]; spinal (intrathecal) RvE1 mixed with TNF-α 20 ng): substantially reduced | CRG-evoked heat hyperalgesia [2]: substantially attenuated | neutrophil infiltration (MPO activity) (neutrophil infiltration): reducing | pain-like behaviors (inflammatory pain): potently inhibit | CRG-induced edema (paw volume) (CRG-induced edema): reducing
